Patent publication US11130960B2, “Methods for conferring or enhancing herbicide resistance on plants and/or alga with protoporphyrinogen oxidase variants” (FARM HANNONG CO., LTD., priority 2014, dated 2021)

Key:
Assay in all cases: Growth inhibition of BT3(ΔPPO) E. coli transformed with 98% homology variant, LB solid medium
Conditions in all cases: 1% agar LB solid medium, 37° C., 14~16 hours, light
CyPPO2 variant = format: cell-based, Oscillatoria nigro-viridis PCC 7112
Source text: (§1) To investigate amino acid sequence homology range of CyPPO2, CyPPO4 and CyPPO8 which maintain herbicide resistance, a part of the amino acid sequence of CyPPO2, CyPPO4 or CyPPO8 protein was replaced by a part of the amino acid sequence of NtPPO (tobacco-derived PPO gene). As a result, the amino acid sequence of the resulting CyPPO2 variant is represented by SEQ ID NO: 12, and its nucleotide sequence thereof is represented by SEQ ID NO: 13. […] Further, the amino acid sequence of the CyPPO4 variant is represented by SEQ ID NO: 14, and its nucleotide sequence thereof is represented by SEQ ID NO: 15. […] Further, the amino acid sequence of the CyPPO8 variant is represented by SEQ ID NO: 16, and its nucleotide sequence thereof is represented by SEQ ID NO: 17.
(§2) Herbicide resistance of the amino acid sequence variant of CyPPO2, the amino acid sequence variant of CyPPO4, and the amino acid sequence variant of CyPPO8 was investigated in PPO-deficient BT3 E. coli [BT3(ΔPPO)], and a specific experimental method is similar to that of Example 3. In the same manner as in Example 3, as a negative control, the wild-type PPO (wild-type AtPPO1) of Arabidopsis thaliana was employed as a reference for herbicide-sensitivity. As a positive control, the mutant AtPPO1 which was prepared by amino acid replacement of Y426M and S305L in the wild-type amino acid sequence was employed as a reference for herbicide-resistance.
(§3) An autoclave was used under conditions of 121° C. and 15 minutes, and an incubator was used at 37° C. with lighting of 169 μmol m^−2 s^−1 for a culture time of 14˜16 hours. A UV-visible spectrophotometer was used at 600 nm. PCR was performed under conditions of at 94° C. for 4 minutes, and 25 cycles (at 94° C. for 30 seconds, at 56˜60° C. for 30 seconds and at 72° C. for 3 minutes), at 72° C. for 5 minutes and at 4° C. for 5 minutes. Respective herbicides were prepared at a concentration of 200 mM in DMSO, and stored at −20° C. Before use, the herbicides were diluted and added to LB broth medium (containing […]).
(§4) Saturated cells were inoculated in 3 ml of LB liquid medium containing chloramphenicol, and then cultured at 37° C., 200 rpm for 5 hours. Density of the cultured cells was measured at 600 nm, and the transformants were diluted with LB liquid medium to have the same absorbance (OD600) per 1 ml thereof (OD600=0.5). Agar was added to LB liquid medium at a concentration of 1%, and then autoclaved. Chloramphenicol (34 μg/ml) and herbicide were added and mixed. Cells diluted equally was diluted at a density of 10^0, 10^−1, 10^−2, 10^−3, 10^−4, and 10^−5. Each 10 μl of the cells was dropped on 1% agar, LB solid medium, and cultured in a 37° C. incubator for 14˜16 hours (light condition: 169 μmol m^−2s^−1).
(§5) To prepare BT3(ΔPPO) competent cells, BT3(ΔPPO) strain was added to 5 ml of LB broth containing 50 μg/ml kanamycin and 20 μg/ml hematin, and cultured in a 37° C. shaking incubator for 12 hours in the dark. Thereafter, 5 ml of the culture was added to 100 ml of LB broth containing 20[…] μg/ml hematin, and cultured in a 37° C. shaking incubator in the dark until OD600 reached 0.5. BT3(ΔPPO) competent cells were prepared from the cultured E. coli using CaCl2 according to protocols for preparing competent cells. Next, to transform the BT3(ΔPPO) strain with the respective vectors harboring the CyPPO2 variant, CyPPO4 variant and CyPPO8 variant, 5 μl of the vector was added to 100 μl of BT3(ΔPPO) competent cells, and the mixture was mixed well, allowed to react on ice for 20 minutes, and then left at 42° C. for 40 seconds. After stabilization on ice for 2 minutes, 1 ml of LB broth was added to BT3(ΔPPO), and cultured at 37° C. for 1 hour with shaking. The cells cultured in the medium were collected according to the type of the gene insert, and then spread on LB solid medium containing chloramphenicol (34 μg/ml), and cultured at 37° C. for 12 hours or longer. Thereafter, single colonies thereof were cultured in LB liquid medium. […]

CyPPO4 variant = format: cell-based, Lyngbya sp. PCC 8106
Source text: as §1, §2, §3, §4, §5

CyPPO8 variant = format: cell-based, Halothece sp. PCC 7418
Source text: as §1, §2, §3, §4, §5

Measured: concentration at which growth inhibition was hardly observed

O=C(O)c1cc(Oc2ccc(C(F)(F)F)cc2Cl)ccc1[N+](=O)[O-] [Acifluorfen]
25 µM: all assays above

C#CCN(C)c1c(C#N)cnn1-c1nn2c(c1Cl)CCCC2 [Pyraclonil]
25 µM: all assays above

COC(=O)CSc1cc(/N=c2\sc(=O)n3n2CCCC3)c(F)cc1Cl [Fluthiacet-methyl]
25 µM: all assays above

CC(C)N(C)S(=O)(=O)NC(=O)c1cc(-n2c(=O)cc(C(F)(F)F)n(C)c2=O)c(F)cc1Cl [Saflufenacil]
25 µM: all assays above

CC(C)Oc1cc(-n2nc(C(C)(C)C)oc2=O)c(Cl)cc1Cl [Oxadiazon]
25 µM: all assays above

COC(=O)CCNC(=O)C(C)Sc1cc(-n2c(=O)cc(C(F)(F)F)n(C)c2=O)c(F)cc1Cl (stereo not drawn) [Tiafenacil]
25 µM: all assays above

Cc1nn(-c2cc(NS(C)(=O)=O)c(Cl)cc2Cl)c(=O)n1C(F)F [Sulfentrazone]
25 µM: all assays above

CS(=O)(=O)NC(=O)c1cc(Oc2ccc(C(F)(F)F)cc2Cl)ccc1[N+](=O)[O-] [Fomesafen]
25 µM: all assays above

C#CCN1C(=O)COc2cc(F)c(N3C(=O)C4=C(CCCC4)C3=O)cc21 [Flumioxazin]
25 µM: all assays above

CC(C)=C1OC(=O)N(c2cc(OC3CCCC3)c(Cl)cc2F)C1=O [Pentoxazone]
25 µM: all assays above

CCOC(=O)COc1cc(-c2nn(C)c(OC(F)F)c2Cl)c(F)cc1Cl [Pyraflufen-ethyl]
25 µM: all assays above

CCOc1cc(Oc2ccc(C(F)(F)F)cc2Cl)ccc1[N+](=O)[O-] [Oxyfluorfen]
25 µM: all assays above

C=CCOC(=O)C(C)(C)OC(=O)c1cc(-n2c(=O)cc(C(F)(F)F)n(C)c2=O)ccc1Cl [Butafenacil]
25 µM: all assays above
